Assay results published in paper PMC9486805, “Identification of a Phage Display-Derived Peptide Interacting with the N-Terminal Region of Factor VII Activating Protease (FSAP) Enables Characterization of Zymogen Activation” (ACS Chemical Biology, 2022).
Bridge positions count the residues as written; N and C are the ends. Ends that are not written are not given here.

How the values were obtained:
pro-FSAP in human plasma [1] = biological target: T1, pro-FSAP in human plasma (Homo sapiens, UniProt Q14520); settings: NNKC9/41; cited from earlier work
T1 construct: from tissue; host or cells: human hirudin or citrate plasma from healthy donors, diluted 1:12
Description: The contact pathway of blood coagulation is activated by negatively charged surfaces,[44] and we also tested whether it was involved in any way in the pro-FSAP activation process. […] The kallikrein inhibitor PKS1-527 had no effect,[43] but aprotinin, a general serine protease inhibitor, blocked pro-FSAP activation/activ ...

pro-FSAP in human plasma [2] = biological target: T1, pro-FSAP in human plasma; assay: Activation of endogenous pro-FSAP in plasma, fluorogenic substrate turnover; format: biochemical
Method: Human citrate plasma (0.38% w/v) or hirudin plasma (25 μg/mL Lepirudin) was obtained from five healthy donors. Plasma was diluted at 1:12 and mixed with various test substances that potentially activate or inhibit pro-FSAP. Ac–Ala–Lys–Nle–Arg–AMC (amino–methyl–coumarin) was used as a sensitive and specific substrate for FSAP.[35] Hydrolysis of the fluorogenic substrates was measured using a Synergy HI plate reader with excitation at 320 nm and emission at 460 nm at 37 °C for 60 min. The maximal velocity was calculated from the linear part of the progress curve. In limited experiments, the second-generation fluorogenic FSAP substrate (Ac–Pro–DTyr–Lys–Arg–AMC)[34] was used. Pro-uPA activation, formation of FSAP−α2-antiplasmin, and western blotting with anti-FSAP antibodies were also used to monitor pro-FSAP activation.

[3] = biological target: T2, pro-FSAP purified from human plasma (Homo sapiens, UniProt Q14520); assay: Pro-FSAP activation assay, purified pro-FSAP, chromogenic substrate S-2288; format: biochemical
T2 construct: Pro-FSAP was isolated from human plasma as described before; from tissue; host or cells: human plasma
Method: Figure 1 Isolation of pro-FSAP binding peptides and their activity: (A) strategy to isolate high-affinity phages from the NNKC9 and NNK11 libraries that bind to pro-FSAP. To select for strong binders, an excess of free pro-FSAP protein was used for competitive elution of low-affinity binders. High-affinity binders retained on the beads were analyzed further. The sequences of major positive clones identified through an ELISA-based binding assay from the NNKC9 and NNK11 libraries are shown. (B) NNK11/189 and scrambled controls (0–50 μM) and histones (0–50 μg/mL) were added to purified pro-FSAP (1.0 μg/mL) and the turnover of the chromogenic substrate S-2288 (200 μM) was measured. (C) NNKC9/41 was compared to a peptide that was synthetically monocyclized (Cys–Cys cyclic), a peptide with Ser residues instead of Cys at both ends (Ser–Ser linear), a peptide with Ser residues at the end cyclized head to tail (Ser–Ser cyclic), and a scrambled peptide in a pro-FSAP activation assay. (D) Hirudin plasma (1:12 dilution) was incubated with histones (25 μg/mL), NNKC9/41, or Ser–Ser linear control (each, 25 μM), the fluorogenic substrate turnover (Ac–Ala–Lys–Nle–Arg–AMC) was monitored in duplicate wells, and results from a single well are shown. In panels (B) and (C), results are shown as mean + range (duplicate wells). Results were replicated with five different batches of NNKC9/41 (panels (B) and (C)).
Pro-FSAP was isolated from human plasma as described before.[14] The content of the zymogen form varied from 50% to 90% due to autoactivation during the purification process. Histones, isolated from the calf thymus, were obtained from Sigma-Aldrich (Oslo, Norway). FSAP activity assays were performed as described previously.[51] In brief, microtiter wells were blocked with TBS (25 mM Tris–HCl, pH 7.5, and 150 mM NaCl) containing 3% (w/v) BSA for 1 h and washed with TBS-T. The standard assay consisted of TBS-T with 0.3% (w/v) BSA and CaCl2 (2 mM) 1 μg/mL (15 nM) plasma purified pro-FSAP and 250 μM chromogenic substrate S-2288 (D-Ile-L-Pro-L-Arg-p-nitroaniline dihydrochloride) (Haemochrome Diagnostica, Essen, Germany) and was followed at 37 °C at 405 nm in a microplate reader Synergy HI plate reader (BioTek Instruments, Winooski). In some experiments, a fluorescent substrate of FSAP[35] was used.

purified pro-FSAP = settings: heparin ref 13, 14; nucleic acids ref 15, 16; dextran sulfate ref 13; cited from earlier work
Description: This leads to cleavag ...

EGF3 domain of FSAP = settings: cited from earlier work
Description: To identify the domain of FSAP responsible for binding to NNKC9/41, we expressed various domain deletion mutants of pro-FSAP as His-tagged proteins in E. coli as described before.[36] The N-terminus of pro- FSAP (heavy chain) consists of the intrinsically disordered N-terminal region (NTR), three EGF domains, and a kringle domain, whereas the C-terminal-light chain contains the serine protease domain (SPD) (Figure 2C). […] The recombinant proteins (Figure 2D) were captured on polyclonal FSAP an ...

[4] = hirudin plasma, Ac–Pro–DTyr–Lys–Arg–AMC (Fig S3)

T1 sequence (Q14520 24-560): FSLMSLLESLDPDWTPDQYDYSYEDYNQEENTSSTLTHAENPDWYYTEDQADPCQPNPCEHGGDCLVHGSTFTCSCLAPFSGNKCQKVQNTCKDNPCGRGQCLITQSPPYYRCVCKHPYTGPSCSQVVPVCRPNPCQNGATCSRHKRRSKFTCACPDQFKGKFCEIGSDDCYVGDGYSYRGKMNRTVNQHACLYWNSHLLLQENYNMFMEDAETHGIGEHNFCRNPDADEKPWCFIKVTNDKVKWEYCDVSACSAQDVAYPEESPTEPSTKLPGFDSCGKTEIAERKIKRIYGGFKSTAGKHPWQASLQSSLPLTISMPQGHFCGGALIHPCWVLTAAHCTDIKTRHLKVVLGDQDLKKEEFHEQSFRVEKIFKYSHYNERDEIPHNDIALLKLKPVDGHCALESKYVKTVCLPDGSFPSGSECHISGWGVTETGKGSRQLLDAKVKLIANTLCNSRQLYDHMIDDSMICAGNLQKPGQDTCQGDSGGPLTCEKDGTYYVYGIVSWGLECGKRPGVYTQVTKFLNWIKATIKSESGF
T2 sequence (Q14520 24-560): as above

For `Cl.NCC1CCC(C(=O)N[C@@H](Cc2ccccc2)C(=O)Nc2ccc(CC(=O)O)cc2)CC1` (stereo partly shown) [PKS1-527], the “effect of kallikrein inhibitor” value (pro-FSAP in human plasma [1]) is listed as “had no effect”.

For “CRGAMWMYKRC (disulfide 1-11 (inferred)) [cyclic dimer, antiparallel cyclic dimer of NNKC9/41 through terminal Cys groups]”, the “presence in HPLC fractions active in pro-FSAP activation” value (pro-FSAP in human plasma [2]; RP-HPLC fractions of NNKC9/41 tested in hirudin plasma, LC–MS (Fig S1)) was “found in all of the active fractions”, the “activity at higher concentrations” value (pro-FSAP in human plasma [2]; [4]) was “pronounced decrease in activity at higher concentrations” and the “maximal activity vs NNKC9/41” value (pro-FSAP in human plasma [2]; [4]) was “slightly lower”.

“CRGAMWMYKRC (not fully specified (N-terminus); also: oxidation gives mixture of Cys1-Cys11 monocycle and disulfide-linked antiparallel dimers) [NNKC9/41]” showed an EC50 ([3]; purified pro-FSAP activation, S-2288, linear synthetic peptide stored under oxidative conditions, five batches) of 8 to 15 µM.

With IDCLMQNAGSA [NNK11/189] the “effect on pro-FSAP activation” value ([3]; purified pro-FSAP 1.0 μg/mL, peptides 0–50 μM, histones 0–50 μg/mL, S-2288 (200 μM in legend b10, 250 μM in method b60), 37 °C, 405 nm, duplicate wells) was “did not have any effect on pro-FSAP activation”.

In the case of aprotinin [reference compound], the “effect of inhibitor on pro-FSAP activation by the peptide” value (pro-FSAP in human plasma [2]; hirudin plasma 1:12, NNKC9/41 25 μM, CTI 80 μg/mL, aprotinin 100 μg/mL, MA-570 20 μg/mL, read-outs of Fig 4D–F (MA-FSAP-570 only Fig 4D,E)) is reported as “blocked pro-FSAP activation/activity”.

In the case of dextran sulfate, the “activation of purified pro-FSAP” value (purified pro-FSAP) is given as “activate purified pro-FSAP”.

For heparin, the “activation of purified pro-FSAP” value (purified pro-FSAP) is listed as “activate purified pro-FSAP” and the “binding to the EGF3 domain” value (EGF3 domain of FSAP) is listed as “binds to the EGF3 domain”.
